Assay [1] has as its system mouse hearts transplanted into rats. Kind of assay: Histomorphometric analysis of infarcted area in transplanted hearts. The conditions noted are these: 3 days after transplantation; SnPPIX treated rats that received exogenous CO. The class given is in vivo, BALB/c mouse hearts, Lewis rats. The source says:
Grafts were harvested 3 days after transplantation, […], and serially sectioned (5 îm) in toto from the apex to the base. Ten sections were placed per slide in a total of about 20–25 slides. Every fifth slide was stained with hematoxylin and eosin (H&E) for histomorphometric analysis. Two images per slide were captured by using a Nikon Eclipse E600O microscope (Nikon, Melville, N.Y.) connected to a Hitachi 3-CCD Color Camera (model HV-C20; Hitachi, Tokyo, Japan) and to a Power MacintoshO 7300/200 computer (Apple Computer, Cupertino, Calif.) equipped with IPLab Spectrum digital imaging software (Signal Analytics Corporation, Vienna, Va.). About 50 images were captured from each transplanted heart from two to three animals per group. Images were analyzed by manual segmentation, tracing the infarcted and noninfarcted areas from the right and left ventricles in each section. Areas corresponding to infarcted and noninfarcted tissue were calculated by digital imaging software as number of pixels corresponding to those areas. Infarcted and noninfarcted areas were then calculated as percentage of total area. Pooled data for each group, expressed as area in pixels or as percentage of infarction, was analyzed by using ANOVA. […] Results are expressed as mean=SD. […]

The next assay relates to βTC3 cells. Kind of assay: DNA fragmentation analysis (FACScan) of βTC3 treated with TNF-α. In kind it is cell-based, murine. Conditions: exogenous CO 1% for 24 hours. As to the method: (§1) βTC3 cultures were incubated with recombinant TNF-α (500 or 1000 U/ml) (R&D Systems) for 24 hours and islet cultures were stimulated with TNF-É (5000 U/ml) (R&D Systems) and cyclohexamide (CHX) (50 μg/ml) for 48 hours. βTC3 or islets were harvested, dispersed, fixed in 70% ethanol, and suspended in DNA staining buffer (PBS, pH 7.4, containing 0.1% Triton X-100, 0.1 mM EDTA, 50 μg/ml propidium iodide, […] Rnase A). DNA content was analyzed on a FACScan™ analyzer equipped with Cell QuestO Software (Becton Dickinson, Palo Alto, Calif.). Cells with a normal DNA content (2N) were scored as viable, whereas cells with a hypoploid DNA content (<2N, termed A^0) were scored as apoptotic. To exclude debris and apoptotic cell-free fragments, all events with an FL-2 area profile below that of chicken erythrocyte nuclei were excluded from analysis.
Cells and islets were exposed to 1% carbon monoxide in compressed air balanced with 5% CO2, as described elsewhere (see, e.g., Otterbein et al., Nature Med. 6:422–428, 2000). […]
Whether exogenous carbon monoxide could protect β-cells from apoptosis was investigated (FIGS. 2A–C). […] After 24 hours cells were stained by propidium iodide and analyzed for DNA fragmentation on a FACScan™. […]

Another assay addresses T1, p38 MAPK (Bos taurus, UniProt A6QLR9).
T1 construct: endogenous in cells; host or cells: bovine aortic endothelial cells (BAEC)
The class given is cell-based, bovine. The conditions noted are these: BAECs; CO 10,000 ppm.

Assay [2] relates to murine islets of Langerhans. The experiment in a line: DNA fragmentation analysis (FACScan) of murine islets stimulated with TNF-α and cycloheximide. In kind it is cell-based, C57BL/6 mice. Conditions: isolated murine islets; TNF-α plus cycloheximide; CO 1% for 24 hours; analysed after 48 hours. As to the method:
as §1
Cells and islets were exposed to 1% carbon monoxide in compressed air balanced with 5% CO2, as described elsewhere (see, e.g., Otterbein et al., Nature Med. 6:422–428, 2000). Islets were incubated in RPMI medium pre-saturated with carbon monoxide (4° C. overnight, 1% CO, 5% CO2) for two hours at 37° C. while treatment with 1% CO, 5% CO2 was continued.
Whether exogenous carbon monoxide protects murine islet cells from apoptosis was also investigated (FIG. 3). […] After 48 hours cells were analyzed on a FACScan™ for DNA fragmentation. […]

The subject of the next assay is HO-1. Kind of assay: Western blot of HO-1 expression in cultured endothelial cells. The class given is cell-based, mouse. The conditions noted are these: data not shown. On the procedure: Endothelial cells were washed in PBS (pH 7.2), harvested by scraping, and lysed in Laemmli buffer. Electrophoresis was conducted under denaturing conditions with 10% polyacrylamide gels. Proteins were transferred onto a polyvinyldifluoridine membrane (immobilon P; Millipore, Bedford, Mass.) by electroblotting and detected with rabbit polyclonal Abs directed against human HO-1 or HO-2 (StressGen, Victoria, Canada) or é-tubulin (Boehringer Mannheim, Mannheim, Germany). Proteins were visualized by using HRP-conjugated donkey anti-rabbit IgG or goat anti-mouse IgG (Pierce) and the ECL assay (Amersham Life Science, Arlington Heights, Ill.) according to manufacturer's instructions.
For orientation: Immunoblotting shows a protein as a band on a membrane.

T1 sequence (A6QLR9 1-360): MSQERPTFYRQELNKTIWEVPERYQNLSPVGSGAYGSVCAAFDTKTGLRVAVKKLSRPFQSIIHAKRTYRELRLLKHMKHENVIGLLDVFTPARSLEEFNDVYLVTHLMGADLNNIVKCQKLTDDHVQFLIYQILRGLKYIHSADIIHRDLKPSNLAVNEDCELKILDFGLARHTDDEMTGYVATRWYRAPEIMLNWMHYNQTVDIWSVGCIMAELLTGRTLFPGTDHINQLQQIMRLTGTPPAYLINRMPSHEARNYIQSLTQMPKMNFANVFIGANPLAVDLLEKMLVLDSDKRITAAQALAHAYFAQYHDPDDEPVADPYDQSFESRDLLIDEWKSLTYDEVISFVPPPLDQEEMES

On to `[C-]#[O+]` [CO, carbon monoxide], for which, in assay [1], the “infarction of the left ventricle” value came to 1.8±3.4% and the “infarction of the right ventricle” value is 8.4±5.3%. Also, the “apoptotic cells (DNA fragmentation analysis)” value with βTC3 cells was 11.7%. In addition, the “p38 MAPK activation” value on p38 MAPK is reported as “activated p38 MAPK even in the absence of TNF-α”. In assay [2], the “apoptotic cells (DNA fragmentation analysis)” value is given as 11.7%.
Turning to `C=Cc1c2[n-]c(c1C)/C=c1\[n-]/c(c(C)c1C=C)=C\c1[n-]c(c(CCC(=O)O)c1C)C=c1[n-]/c(c(C)c1CCC(=O)O)=C\2.[Sn+4]` [SnPPIX, tin protoporphyrin IX], in the assay on HO-1, the “expression of HO-1 in cultured endothelial cells” value is reported as “up-regulated the expression of HO-1”.

Source of the values: US7238469B2, “Carbon monoxide improves outcomes in tissue and organ transplants and suppresses apoptosis” (priority 2001, dated 2007).
